GI50 and TGI data for nine molecules are collected here from PubChem BioAssay (NCI).

What all share (assay): inhibition of tumour cell growth, NCI panel, 48 h
Assay [1] relates to SF-539 CNS.
In assay [2] the test system is T-47D breast.
Assay [3] relates to SNB-19 CNS.
Assay [4] relates to ACHN renal.
Assay [5] relates to K-562 leukemia.
The test system of assay [6] is 786-0 renal.
The subject of assay [7] is MALME-3M melanoma.
Assay [8] concerns BT-549 breast.

Where “and” joins values, the source holds several entries; their conditions need not be identical. Identical values can stand only once.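 Dose response: 5 concentrations. Exposure: 48 h. Format: 96-well plates. Endpoint: linear interpolation; highest concentration if not reached. At the GI50, growth is halved. TGI: concentration producing complete growth inhibition.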

Regarding `COc1ccc(-c2cn(-c3cc(OC)c(OC)c(OC)c3)c(=O)[nH]2)cc1OC`, the GI50 in assay [1], in assay [2], in assay [3], in assay [4], in assay [5] and in assay [6] was more than 100 µM each time. Further, the GI50 in assay [7] and in assay [8] was more than 100 µM in each case. The TGI in assay [1], in assay [2], in assay [3], in assay [4], in assay [5] and in assay [6] was more than 100 µM throughout. In addition, the TGI in assay [7] and in assay [8] was more than 100 µM throughout.
On to `CC(=O)N[C@@H](Cc1ccc(OP(=O)(O)O)cc1)C(=O)N[C@H]1CCC(=O)N2CCC[C@@H](C(=O)NCc3ccccc3)N2C1=O`, for which the GI50 in assay [1], in assay [2], in assay [3], in assay [4], in assay [5] and in assay [6] was more than 25 µM in each case. Moreover, the GI50 in assay [7] and in assay [8] was more than 25 µM in each case. Also, the TGI in assay [1], in assay [2], in assay [3], in assay [4], in assay [5] and in assay [6] was more than 25 µM each time. Moreover, the TGI in assay [7] and in assay [8] was more than 25 µM in each case.
In the case of `COc1cc(CCNC(=O)OC(C)(C)C)c2c(c1OC)SSSSS2`, the GI50 was 3.42 µM in assay [1]; 2.77 µM in assay [2]; 2.7 µM in assay [3]; 2.56 µM in assay [4]; 2.45 µM in assay [5]; 2.08 µM in assay [6]. For the same molecule, the GI50 was 2.48 µM in assay [7] and 2.54 µM in assay [8]. Also, the TGI worked out at 10.4 µM in assay [1]; 5.92 µM in assay [2]; 5.63 µM in assay [3]; 4.93 µM in assay [4]; 21.3 µM in assay [5]; 5.56 µM in assay [6]. For the same molecule, the TGI worked out at 4.94 µM in assay [7] and 5.06 µM in assay [8].
For the molecule `NC(=O)c1cc(Br)ccc1NC(=O)/C=C/c1ccccc1`, the GI50 in assay [1] was 1.24 µM; in assay [2], 3.51 µM; in assay [3] it was 5.36 µM; in assay [4], 6.45 µM; in assay [5] it was 0.829 µM; in assay [6], 3.72 µM. Moreover, the GI50 in assay [7] is 11.6 µM; in assay [8], 4.97 µM. The TGI in assay [1] was 8.57 µM; in assay [2], more than 100 µM; in assay [3] it was more than 36.9 µM; in assay [4] it was more than 100 µM; in assay [5], more than 34.4 µM; in assay [6], more than 34.8 µM. The TGI in assay [7] is more than 100 µM; in assay [8], 28.7 µM.
Turning to `CNC(=O)c1cccc(C#Cc2cncnc2Nc2ccc(OCc3cccc(F)c3)c(Cl)c2)c1`, the GI50 is 4.39 µM in assay [1]; 3.18 µM in assay [2]; 6.9 µM in assay [3]; 4.18 µM in assay [4]; 9.7 µM in assay [5]; 6.33 µM in assay [6]. For the same molecule, the figures for the GI50 in assay [7] and in assay [8] were 9.31 µM and 8.56 µM, respectively. Besides, the TGI was 9.69 µM in assay [1]; 15.7 µM in assay [2]; more than 25 µM in assay [3]; 24.9 µM in assay [4]; more than 25 µM in assay [5]; more than 25 µM in assay [6]. The TGI in assay [7] was 24.6 µM; in assay [8], more than 25 µM.
`CC1Cc2ccccc2N1C(=O)Cc1nc(N2CCOCC2)cc(=O)[nH]1` (stereo unspecified): the GI50 in assay [1] was 8.79 µM and 22.4 µM; in assay [2], 1.6 µM and 3.73 µM; in assay [3], 25.3 µM and 45.8 µM; in assay [4], 3.94 µM and 8.73 µM; in assay [5] it was more than 100 µM; in assay [6], 0.639 µM and 3.19 µM. For the same molecule, the GI50 in assay [7] was 3.18 µM and 7.81 µM; in assay [8], 1.37 µM and 5.58 µM. Besides, the TGI in assay [1] is more than 100 µM; in assay [2], 42.6 µM and 99.7 µM; in assay [3] it was more than 100 µM; in assay [4], more than 100 µM; in assay [5], more than 100 µM; in assay [6], > 100 µM and 98.4 µM. In addition, the TGI in assay [7] was 61.9 µM and > 79.1 µM; in assay [8] it was 57.2 µM and > 94.7 µM.
Regarding `O=[N+]([O-])c1oc2ccc3ccccc3c2c1CCO`, the TGI is 13.4 µM in assay [1]; 73.3 µM in assay [2]; 68.4 µM in assay [3]; 3.68 µM in assay [4]; more than 100 µM in assay [5]; more than 50 µM in assay [6]. For the same molecule, the TGI in assay [7] was determined as 3.84 µM; in assay [8], 8.71 µM.
On to `Cc1ccccc1C(C(=O)NC1CCCCC1)N(C(=O)CNc1ncccc1F)c1cccc(F)c1` (stereo unspecified), for which the GI50 in assay [1] is 22.7 µM; in assay [2], 60.8 µM; in assay [3] it was 17.2 µM; in assay [4], 49.8 µM; in assay [5] it was more than 100 µM; in assay [6], 32.8 µM. In addition, the GI50 is more than 100 µM in assay [7] and more than 58.4 µM in assay [8]. The TGI in assay [1] is 81.7 µM; in assay [2] it was more than 100 µM; in assay [3] it was more than 87.3 µM; in assay [4] it was more than 100 µM; in assay [5], more than 100 µM; in assay [6], more than 100 µM. In addition, the TGI in assay [7] and in assay [8] was more than 100 µM throughout.
As for `O=C1c2c(Cl)c(Cl)c(Cl)c(Cl)c2C(=O)C2(Cl)CC=CCC12Cl` (stereo unspecified), the GI50 in assay [1] is 2.06 µM; in assay [2], 1.74 µM; in assay [3] it was 1.64 µM; in assay [4], 1.89 µM; in assay [5] it was 1.09 µM; in assay [6] it was 2 µM. Further, the figures for the GI50 in assay [7] and in assay [8] were 2.03 µM and 1.85 µM, respectively. The TGI stood at 4.05 µM in assay [1]; 4.01 µM in assay [2]; 3.01 µM in assay [3]; 3.37 µM in assay [4]; 3.59 µM in assay [5]; 3.62 µM in assay [6]. Moreover, the results for the TGI in assay [7] and in assay [8] were 4.16 µM and 3.38 µM, respectively.
